Assay results taken from paper PMC8327158, “PEGylated AdipoRon derivatives improve glucose and lipid metabolism under insulinopenic and high-fat diet conditions” (Journal of Lipid Research, 2021).

Tested on: HFD-fed wild-type mice
Assay: Sphingolipid levels in tissues and serum of HFD-fed mice by mass spectrometry
Type: in vivo, mouse
Settings: for Cer 14:0 / Cer 16:0 / Cer 18:0 / Cer 18:1 / Cer 20:0 / Cer 22:0 / Cer 24:0 / Cer 24:1 / Cer 26:0 / Cer 26:1 / DeoxySphinganie / Deoxysphingosine / Hexosyl 14:0 / Hexosyl 16:0 / Hexosyl 18:0 / Hexosyl 20:0 / Hexosyl 22:0 / Hexosyl 24:0 / Hexosyl 24:1 / Lactosyl 16:0 / Lactosyl 18:0 / Lactosyl 22:0 / Lactosyl 24:1 / Lactosyl C24:0 / Sphingaine1P / Sphinganine / Sphingosine / Sphingosine1P / dCer 16:0 / dCer 18:0 / dCer 20:0 / dCer 22:0 / dCer 24:0 / dCer 24:1: 5 mg/kg twice a day 5 days, average ± SD
Experimental: Six-week-old wild-type male mice were fed HFD for 4 weeks or 7 months In total, 5 mg/Kg of PBS, Adiporon, AdipoRonPEG5, AdipoRonPEG6HTL were injected twice a day for 5 days. After 5 days of treatment, systemic test is performed, and serum (Before and after treatment), subcutaneous, epididymal, liver, heart samples were harvested for qPCR and sphingolipid analysis.
Flash-frozen tissue samples (~40 mg) in a borosilicate glass tube were quenched with 2.0 ml of organic extraction solvent (isopropanol: ethyl acetate, 15:85; v:v) and homogenized with a mechanical tissue disruptor. Immediately afterward, 20 μl of organic internal standard solution was added (Ceramide/Sphingoid Internal Standard Mixture II diluted 1:10 in ethanol). The mixture was vortexed for 20 s and sonicated in ultrasonic bath for 40 min at 40°C. The organic extract was allowed to reach room temperature, and 1.5 ml of HPLC water was added and a two-phase liquid-liquid extraction was performed. The upper phase was transferred to a new clean tube, and the lower aqueous phase containing the protein pellet was re-extracted with additional 2.0 ml of organic extraction solvent. The organic phases were combined and dried under nitrogen stream at 40°C. Dried extracts were stored at –80°C until analysis. For analysis of ceramides and sphingoid base species, the dried residues were reconstituted in 200 μl of methanol. Sphingomyelins required a sample dilution of 1:50 in methanol prior to analysis. Serum sphingolipids were extracted using a similar methodology requiring 25 μl of serum.
Liver, subcutaneous adipose tissue, pancreas, pancreatic islets were initially homogenized in 500 μl of cold PBS using an ultrasonic probe disruptor and keeping the sample on ice during sonication. In total, 50 μl of aqueous homogenate was aliquoted for protein determination. In total, 400 μl of the lysate was immediately quenched in 2.0 ml of organic extraction solvent.
In total, 5 μl of reconstituted samples was injected into an LC/MS/MS system for the analysis of ceramides and sphingoid bases, and 1 μl injection was required for the analysis of sphingomyelins. The system consisted of a Shimadzu LCMS-8050 triple-quadrupole mass spectrometer with the dual ion source operating in electrospray positive ionization mode. The mass spectrometer is coupled to a Shimadzu Nexera X2 UHPLC system equipped with three solvent delivery modules LC-30AD, three degassing units DGU-20A5R, an autosampler SIL-30ACMP, and a column oven CTO-20AC operating at 40°C (Shimadzu Scientific Instruments, Columbia, MD). Six sphingoid bases (d18:1 sphingosine, d18:1 sphingosine-1-phosphate, d18:1 deoxysphingosine, d18:0 sphinganine, d18:0 sphinganine-1-phosphate, d18:0 deoxysphinganine) and […] ceramide species and their metabolites (C16:0, C16:0 dihydroceramide, C16:0 glucosylceramide, C16:0 lactosylceramide, C16:0 sphingomyelin, C18:0, C18:0 dihydroceramide, C18:0 glucosylceramide, C18:0 sphingomyelin, C18:1, C20:0, C22:0, C22:0 glucosylceramide, C24:0, C24:0 dihydroceramide, C24:0 lactosylceramide, C24:0 sphingomyelin, C24:1, C24:1 dihydroceramide, C24:1 glucosylceramide, C24:1 sphingomyelin). Quantitative analysis of sphingolipids was achieved using selective reaction monitoring scan mode. Lipid separation was achieved by reverse phase LC on a 2.1 (i.d.) × 150 mm Ascentis Express C8, 2.7 micron (Supelco, Bellefonte, PA) column under gradient elution, using three different mobile phases: eluent A consisting of methanol/water/formic acid, 600/400/0.8, v/v/v with 5 mM ammonium formate, eluent B consisting of methanol/formic acid, 1,000/0.8, v/v with 5 mM ammonium formate, and eluent C consisting of CH3OH/CH2Cl2 350/650. The concentration of each metabolite was determined according to calibration curves using the peak-area ratio of analyte versus corresponding internal standard. Calibration curves were generated using serial dilutions of each target analyte.

## O=C(COc1ccc(C(=O)c2ccccc2)cc1)NC1CCN(Cc2ccc(OCCOCCOCCOCCOCCO)cc2)CC1 [AdipoRonPEG5]
5 mg/kg
  pancreas S1P level: trend of elevating S1P
  pancreas dihydroceramide levels: minimal impact
  scWAT ceramide levels: neither AdipoRon nor AdipoRonPEG5 had a noticeable impact
5 mg/kg, vs saline controls or AdipoRon
  pancreas C24:0 and C24:1 ceramides: significant reduction
IP 5 mg/kg
  hepatic dihydroceramides: drastically reduced
  serum dihydroceramides dC16:0, dC18:0, dC22:0, dC24:0: drastically lowered
  sphingoid bases including S1P in the liver: overall increase
liver
  Cer 14:0: 10700.6 ± 4986.87 pg/mg
  Cer 16:0: 10811.2 ± 3038.11 pg/mg
  Cer 18:0: 41588.7 ± 18827.94 pg/mg
  Cer 18:1: 0 pg/mg
  Cer 20:0: 1285175.8 ± 314117.31 pg/mg
  Cer 22:0: 17214621.7 ± 3730792.66 pg/mg
  Cer 24:0: 13003125.0 ± 3100177.0 pg/mg
  Cer 24:1: 11982004.5 ± 3750645.21 pg/mg
  Cer 26:0: 114936.8 ± 43584.75 pg/mg
  Cer 26:1: 108478.1 ± 38829.61 pg/mg
  DeoxySphinganie: 17056.5 ± 5841.85 pg/mg
  Deoxysphingosine: 674.4 ± 179.33 pg/mg
  Hexosyl 14:0: 9405.4 ± 4098.51 pg/mg
  Hexosyl 16:0: 2563091.7 ± 636477.68 pg/mg
  Hexosyl 18:0: 8702.7 ± 4241.12 pg/mg
  Hexosyl 20:0: 91341.0 ± 29325.4 pg/mg
  Hexosyl 22:0: 18299628.4 ± 6151493.38 pg/mg
  Hexosyl 24:0: 9345685.4 ± 2422218.78 pg/mg
  Hexosyl 24:1: 8806042.3 ± 2575774.26 pg/mg
  Lactosyl 16:0: 857779.3 ± 221964.15 pg/mg
  Lactosyl 18:0: 0.0 ± 0.0 pg/mg
  Lactosyl 22:0: 403630.8 ± 109007.39 pg/mg
  Lactosyl 24:1: 403865.6 ± 85387.31 pg/mg
  Lactosyl C24:0: 284732.8 ± 96368.82 pg/mg
  Sphingaine1P: 124644.1 ± 37940.82 pg/mg
  Sphinganine: 567456.6 ± 215845.28 pg/mg
  Sphingosine: 1814140 ± 638775.97 pg/mg
  Sphingosine1P: 423169.5 ± 201268.1 pg/mg
  dCer 16:0: 7004.1 ± 1704.17 pg/mg
  dCer 18:0: 30523.3 ± 10512.82 pg/mg
  dCer 20:0: 17088.9 ± 5527.47 pg/mg
  dCer 22:0: 85360 ± 20574 pg/mg
  dCer 24:0: 355838.6 ± 67813.11 pg/mg
  dCer 24:1: 64056.2 ± 12063.67 pg/mg
pancreas
  Cer 14:0: 20.8 ± 6.06 pg/mg
  Cer 16:0: 28.6 ± 10.14 pg/mg
  Cer 18:0: 31.4 ± 12.12 pg/mg
  Cer 18:1: 0 pg/mg
  Cer 20:0: 1410.3 ± 372.3 pg/mg
  Cer 22:0: 5266.0 ± 1349.3 pg/mg
  Cer 24:0: 16049.4 ± 4089.83 pg/mg
  Cer 24:1: 7744.9 ± 1489.17 pg/mg
  Cer 26:0: 162.6 ± 42.67 pg/mg
  Cer 26:1: 88.6 ± 17.21 pg/mg
  DeoxySphinganie: 2.4 ± 0.49 pg/mg
  Deoxysphingosine: 0.0 ± 0.0 pg/mg
  Hexosyl 14:0: 4.2 ± 0.35 pg/mg
  Hexosyl 16:0: 2792.5 ± 371.94 pg/mg
  Hexosyl 18:0: 8.8 ± 4.08 pg/mg
  Hexosyl 20:0: 111.6 ± 39.83 pg/mg
  Hexosyl 22:0: 5728.8 ± 1888.49 pg/mg
  Hexosyl 24:0: 3233.9 ± 524.83 pg/mg
  Hexosyl 24:1: 1360.1 ± 170.0 pg/mg
  Lactosyl 16:0: 1043.4 ± 60.99 pg/mg
  Lactosyl 18:0: 61.7 ± 15.72 pg/mg
  Lactosyl 22:0: 258.7 ± 89.43 pg/mg
  Lactosyl 24:1: 337.2 ± 90.18 pg/mg
  Lactosyl C24:0: 2121.1 ± 714.63 pg/mg
  Sphingaine1P: 25.6 ± 5.99 pg/mg
  Sphinganine: 34.5 ± 9.74 pg/mg
  Sphingosine: 219.2 ± 31.51 pg/mg
  Sphingosine1P: 113.2 ± 32.02 pg/mg
  dCer 16:0: 5.7 ± 3.12 pg/mg
  dCer 18:0: 0.0 ± 0.0 pg/mg
  dCer 20:0: 1.9 ± 0.7 pg/mg
  dCer 22:0: 54.2 ± 43.08 pg/mg
  dCer 24:0: 302.0 ± 155.43 pg/mg
  dCer 24:1: 47.3 ± 31.67 pg/mg
scWAT
  Cer 14:0: 32099.4 ± 10520.94 pg/mg
  Cer 16:0: 191093.1 ± 51596.09 pg/mg
  Cer 18:0: 82819.6 ± 17887.79 pg/mg
  Cer 18:1: 21443 ± 6799 pg/mg
  Cer 20:0: 147177.5 ± 8589.73 pg/mg
  Cer 22:0: 712843.5 ± 129405.16 pg/mg
  Cer 24:0: 2685762.3 ± 976754.88 pg/mg
  Cer 24:1: 3013765.2 ± 650894.91 pg/mg
  Cer 26:0: 24885.1 ± 6744.06 pg/mg
  Cer 26:1: 30570.9 ± 6986.86 pg/mg
  DeoxySphinganie: 1329.3 ± 1128.06 pg/mg
  Deoxysphingosine: 0.0 ± 0.0 pg/mg
  Hexosyl 14:0: 5193.4 ± 2870.39 pg/mg
